According to patent publication US9596851B1, “Method for controlling growth of red palm weevil” (priority 2015, dated 2017):
Where two headings read alike, the source gives them in different places.

Assays:
[1] = test system: Red Palm Weevil larvae; assay: Insecticidal potential of coumarin at different doses incorporated in artificial diet (mortality bioassay); format: in vivo, Rhynchophorus ferrugineus; conditions: for EC50 / LD50: artificial diet, after three days
Procedure: Insecticidal potential of coumarin at different dose concentrations (200 ppm, 400 ppm, 600 ppm, 800 ppm and 1000 ppm) was evaluated against 4th, 8th and 12th instar Red Palm Weevil larvae. The above mentioned concentrations of coumarin were prepared by dissolving coumarin in 0.05% acetone. The ingredients of artificial diet (wheat flour @ 45 g/L, corn flour @ 45 g/L, Yeast @ 45 g/L, Agar @ 17.5 g/L, Sorbic acid @ 1.6 g/L, L-Ascorbic Acid @ 4 g/L, Pharmaton (2 capsules/L), Tetracycline @ 500 mg/L) were dissolved in 1 L of coumarin solution with strength 200 mg/L, 400 mg/L, 600 mg/L, 800 mg/L and 1000 mg/L, separately. The newly moulted 4th, 8th and 12th instar Red Palm Weevil larvae were allowed to feed on each diet separately in perforated plastic bowls. In case of control treatment, 0.05% acetone was used to prepare the diet. Twenty larvae were used to compile one replicate. Five replicates were prepared likewise. The fresh diet was provided daily to the larvae. The experimental units were incubated at 30±1° C. and 75%±5% relative humidity. Abbot formula was used to correct the control mortality (Abbott, 1925). Efficacy of coumarin was determined at each dose to calculate LD50 values.

[2] = test system: Red Palm Weevil larvae; assay: Growth indices bioassay (nutritional indices ECI, ECD, AD) on coumarin-incorporated artificial diet; format: in vivo, Rhynchophorus ferrugineus; conditions: 72 hours post exposure; for inhibition at 1000 ppm: Rhynchophorus ferrugineus, feed or water, 72 h, 1000 ppm in diet
Procedure: Impact of different doses of coumarin on the growth and development of different larval instars of red palm weevil was evaluated by growth indices bioassays. All the solutions of coumarin were prepared by dissolving in 0.05% acetone. The ingredients of artificial diet (wheat flour @ 45 g/L, corn flour @ 45 g/L, Yeast @ 45 g/L, Agar @ 17.5 g/L, Sorbic acid @ 1.6 g/L, L-Ascorbic Acid @ 4 g/L, Pharmaton (2 capsules/L), Tetracycline @ 500 mg/L) were dissolved in 1 L of coumarin solution with strength 200 mg/L, 400 mg/L, 600 mg/L, 800 mg/L and 1000 mg/L of coumarin, separately. Newly moulted 4th, 8th and 12th instar Red Palm Weevil larvae were allowed to feed on each diet separately in perforated plastic bowls. In case of control treatment, 0.05% acetone was used to prepare the diet. Twenty larvae were used to compile one replicate. Five replicates were prepared likewise. The fresh diet was daily provided to the larvae. The experimental units were incubated at 30±1° C. and 75%±5% relative humidity. Initial and final weight of the larvae and the frass produced during 72 hours post exposure was also measured. These measurements were used to determine the impact of coumarin on the nutritional indices including: Approximate Digestibility [AD=([…]−frass weight)/food ingested×100], Efficacy of conversion of digested food [ECD=weight gained by the larva/(food ingested−dry weight of frass)×100] and Efficacy of conversion of ingested food [ECI=100×dry weight gained by the larva/dry weight of food consumed].
For growth indices, measurements were made 72 hours post-exposure on dry matter basis. Larvae, frass and remaining food after 72 h were dried at 60° C. until constant weight. Growth indices data were analyzed by one way analysis of variance (ANOVA). Means were compared by Fisher's Least Significant Difference (LSD) test.

[3] = 4th, 8th and 12th instar larvae, 200-1000 ppm in diet

O=c1ccc2ccccc2o1 [coumarin]
EC50 ([1]; 4th instar larvae): 293.77 ppm | LD50 ([1]; 4th instar larvae): 404.55 ppm | mortality versus dose [1, 3]: directly proportional | EC50 ([1]; 8th instar larvae): 438.32 ppm | LD50 ([1]; 8th instar larvae): 509.37 ppm | EC50 ([1]; 12th instar larvae): 559.77 ppm | LD50 ([1]; 12th instar larvae): 708.24 ppm | approximate digestibility (AD) [2, 3]: significantly increased | inhibition at 1000 ppm ([2]; 4th instar larvae, read-out: ECD (efficacy of conversion of digested food) inhibition compared to control): 96.9% | inhibition at 1000 ppm ([2]; 4th instar larvae, read-out: ECI (efficacy of conversion of ingested food) inhibition compared to control): 95.6% | inhibition at 1000 ppm ([2]; 8th instar larvae, read-out: ECD (efficacy of conversion of digested food) inhibition compared to control): 89% | inhibition at 1000 ppm ([2]; 8th instar larvae, read-out: ECI (efficacy of conversion of ingested food) inhibition compared to control): 84% | inhibition at 1000 ppm ([2]; 12th instar larvae, read-out: ECD (efficacy of conversion of digested food) inhibition compared to control): 78.5% | inhibition at 1000 ppm ([2]; 12th instar larvae, read-out: ECI (efficacy of conversion of ingested food) inhibition compared to control): 69.4%
